Source: patent US20260256729A1, “CARBAMOYL PHEN[…] AS TAAR1 AGONISTS” (AXSOME THERAPEUTICS, INC., priority 2022, published 2026)
pIC50: −log10 of the molar value. Like-named read-outs stand apart in the source and are kept apart here.

Experiments:
[1] = target: T1, human norepinephrine transporter (hNET) (Homo sapiens, UniProt P23975); experiment: hNET inhibition, in vitro binding and functional studies
[2] = tested on: ventral tegmental area (VTA) dopaminergic neurons; experiment: Firing frequency of VTA dopaminergic neurons in acute brain slices (electrophysiology); type: cell-based, mouse; details: for firing frequency of VTA neurons: acute slices from male C57Bl6/J mice, current clamp; for reduction in firing frequency after pre-treatment with D2 receptor antagonist sulpiride: acute slices
Procedure: The firing frequency of ventral tegmental area (VTA) dopaminergic neurons (n=4-8 cells/experiment) in acute slice preparations was recorded using electrophysiology and analyzed. Brain slices (250 μm thickness) containing VTA from male C57Bl6/J mice were prepared using standard procedures. Slices were perfused with artificial cerebrospinal fluid (aCSF) and spontaneous action potentials were recorded from dopaminergic neurons in current clamp conditions using […] and pClamp10 (Axon Instruments; Revel, Proc. Natl. Acad. Sci. USA 108(20):8485-90 (2011)). […] In addition, the reduction in firing frequency by solriamfetol or TAAR1 agonist RO5256390 was antagonized by pre-treatment with the D2 receptor antagonist sulpiride (FIG. 3A-3B).

[3] = tested on: dopamine transporter deficient (DAT-/-) mice; experiment: Open field locomotor activity, DAT-/- mice (hyperlocomotion); type: in vivo, mouse; details: subcutaneous, solriamfetol 10, 30 or 100 mg/kg, amphetamine 2 mg/kg
Procedure: (§1) Open field locomotor activity was assessed using an automated Omnitech Digiscan (AccuScan Instruments, Columbus, OH).

[4] = Binding assay panel for additional targets
[5] = tested on: wild type mice; experiment: Open field locomotor activity, wild type mice; type: in vivo, mouse; details: subcutaneous, solriamfetol 10, 30 or 100 mg/kg, amphetamine 2 mg/kg
Procedure: as §1

[6] = target: human dopamine transporter (hDAT) (Homo sapiens, UniProt Q01959); experiment: hDAT inhibition, in vitro binding and functional studies
[7] = target: T1, human norepinephrine transporter (hNET); set-up: host or cells: unnamed cell lines or membrane preparations; details: data from published literature (footnote b); cited from earlier work

T1 sequence (P23975 whole entry): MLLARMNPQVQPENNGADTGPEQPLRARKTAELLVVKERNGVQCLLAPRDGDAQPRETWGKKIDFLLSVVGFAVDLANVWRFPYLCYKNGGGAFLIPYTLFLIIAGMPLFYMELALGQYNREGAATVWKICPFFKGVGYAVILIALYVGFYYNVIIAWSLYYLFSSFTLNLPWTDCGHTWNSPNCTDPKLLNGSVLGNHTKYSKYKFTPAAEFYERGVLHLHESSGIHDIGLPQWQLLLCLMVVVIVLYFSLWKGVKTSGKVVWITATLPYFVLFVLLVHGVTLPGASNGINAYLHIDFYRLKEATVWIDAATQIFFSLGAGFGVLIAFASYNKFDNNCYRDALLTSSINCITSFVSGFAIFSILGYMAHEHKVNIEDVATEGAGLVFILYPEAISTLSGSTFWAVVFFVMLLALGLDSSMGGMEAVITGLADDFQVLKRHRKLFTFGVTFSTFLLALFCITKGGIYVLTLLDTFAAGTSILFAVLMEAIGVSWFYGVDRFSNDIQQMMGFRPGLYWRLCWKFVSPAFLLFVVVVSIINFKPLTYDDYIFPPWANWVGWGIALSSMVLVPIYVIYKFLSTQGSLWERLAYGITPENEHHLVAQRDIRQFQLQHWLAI
human dopamine transporter (hDAT), sequence (Q01959 whole entry): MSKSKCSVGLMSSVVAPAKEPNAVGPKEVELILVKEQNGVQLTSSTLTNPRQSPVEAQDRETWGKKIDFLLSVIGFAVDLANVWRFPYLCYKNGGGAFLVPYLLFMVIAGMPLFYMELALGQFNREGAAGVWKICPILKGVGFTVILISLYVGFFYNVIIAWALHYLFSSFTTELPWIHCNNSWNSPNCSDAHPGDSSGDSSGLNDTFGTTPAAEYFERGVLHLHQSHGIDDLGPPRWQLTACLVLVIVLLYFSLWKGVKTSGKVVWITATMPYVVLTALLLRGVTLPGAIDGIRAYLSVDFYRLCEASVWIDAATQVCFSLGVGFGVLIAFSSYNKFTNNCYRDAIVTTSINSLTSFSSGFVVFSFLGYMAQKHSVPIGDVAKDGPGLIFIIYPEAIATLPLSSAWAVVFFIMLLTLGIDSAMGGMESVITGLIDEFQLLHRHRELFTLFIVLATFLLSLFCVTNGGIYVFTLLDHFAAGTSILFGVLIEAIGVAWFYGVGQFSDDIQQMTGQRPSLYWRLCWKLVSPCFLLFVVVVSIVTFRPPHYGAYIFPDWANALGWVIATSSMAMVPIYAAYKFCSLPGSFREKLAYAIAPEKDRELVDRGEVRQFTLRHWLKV

Molecule	pIC50 [1]	firing frequency of VTA neurons [2]	reduction in firing frequency after pre-treatment with D2 receptor antagonist sulpiride [2]	hyperlocomotion (total distance traveled in 90 minutes) [3]	locomotor activity (total distance traveled in 90 minutes) [5]	other results
NC(=O)C[S+]([O-])C(c1ccccc1)c1ccccc1 (centres unmarked) [Modafinil]	< 4.00					
CC[C@@H](C[C@H]1COC(N)=N1)c1ccccc1 [RO5256390]		inhibited firing frequency by VTA neurons in a dose-dependent manner	antagonized			
CCN(C[C@H]1COC(N)=N1)c1ccccc1 [ROS166017]				reduced hyperlocomotion		
NC(=O)OC[C@H](N)Cc1ccccc1 [Solriamfetol, (R)-2-amino-3-phenylpropyl carbamate]	4.84	inhibited firing frequency by VTA neurons in a dose-dependent manner	antagonized	reduced hyperlocomotion	did not increase locomotor activity	additional targets in binding assay panel [4]: no additional targets were identified; pIC50 [6]: 5.49
CC(N)Cc1ccccc1 (centres unmarked) [amphetamine]				reduced hyperlocomotion	increase locomotor activity	
(+)Methamphetamine						pIC50 [7]: 8.89
